For one data set, the target named is T1, Phospho-EGFR Tyr1068 (Homo sapiens, UniProt P00533, L858R/T790M).
T1 construct: host or cells: H1975 (cultured cells; s.c. xenografts in mice)
Put plainly: Immunohistochemical analysis of phosphorylation in H1975 xenografts. In kind it is in vivo, mouse. As to conditions: 14-day dosing. On the procedure: For immunohistochemical analysis of H1975, MDA-MB-231 and other xenografts, tumors were excised after euthanasia and fixed in zinc fixative (BD Biosciences) for 48 h before being processed into paraffin blocks. Serial sections at 5 μm were obtained from the area of largest possible surface for each tumor and stained using standard methods. The following antibodies were used: Ki67 (SP6; Labvision), CD31 (MECA.32; BD Biosciences), pERK^Thr202/Tyr204 (phospho-p44/42 mitogen-activated protein kinase; Cell Signaling Technology), pAKT^Ser473 (Cell Signaling Technology), and pEGFR^Tyr1068 (Cell Signaling Technology). For immunofluorescent staining, sections were then incubated with Alexa 594-conjugated goat anti-rabbit secondary antibody (Invitrogen) and mounted in Fluorescent Mounting Medium (DAKO) containing 4′,6-diamidino-2-phenylindole (Molecular Probes) as a nuclear counterstain. Fluorescent staining was visualized using a Zeiss Axiolmager and digitally captured using a Zeiss high-resolution camera coupled to AxioVision image analysis software. Two to three nonoverlapping representative fields were captured at ×200 or ×400 magnification depending on histologic readout and quantified using the integrated morphometric analysis functions in Metamorph software (Universal Imaging Corp.). Apoptotic cells were detected using terminal deoxynucleotidyl transferase-mediated dUTP nick end labeling in situ cell death detection kit according to the manufacturer's instructions (Roche Diagnostics GmbH).
Results are presented as mean±SD or SE as indicated for each graph or table. For IC50 comparison in the A431 cell viability experiment, two sample Student's t tests were applied to determine P values for each IC50 pair assuming that the random fluctuations of replicates around the dose-response curve are distributed [log]normally with the individual replicates used as the ‘sample size’ for the t test (nine point dose response done in triplicate).

Data set [1] relates to MDA-MB-231 human tumor xenograft. Put plainly: MDA-MB-231 xenograft, tumor growth. The data set is classed as in vivo. Conditions: Mus musculus. On the procedure: Before treatment, H1975, A431, or MDA-MB-231 cells were harvested from exponentially growing cultures, detached by brief trypsinization, washed twice in cold HBSS, resuspended in ice-cold HBSS, and implanted either s.c. (H1975, 3×10^6 cells per mouse) or i.d. (A431, 1×10^6 cells per mouse) into the dorsal hind flank or s.c. into the mammary fat pad (MDA-MB-231, 1×10^6 cells per mouse). Palpable tumors were measured by caliper twice weekly until the mean tumor weight was in the range of ˜80 to 120 mg. Tumor weight was determined by measuring perpendicular diameters with a caliper and multiplying the measurements of diameters in two dimensions: tumor volume (mm^3)/2=length (mm)×width (mm^2)/2. […] The mean tumor weight of each animal in the respective control and treatment groups was determined twice weekly during the dosing periods. […]
(§1) The response of tumors to treatment was determined by comparing the mean tumor weight of the treatment group with the appropriate control group. Percentage inhibition of tumor growth was determined with the following formula: Percentage inhibition=100×[1−(Xf−Xo)/(Yf−Yo)], where Xf and Yf are the mean tumor weights of the treatment and control groups, respectively, on day f, and Xo and Yo are the mean tumor weights of treatment and control groups respectively, on day zero (staged tumor weights after grouping)

Another data set has as its target T2, Thromboxane A2 (Human) (Homo sapiens, UniProt P21731).
T2 construct: NovaScreen
Kind of data set: NovaScreen assay. The data set is classed as binding. Conditions: read-out: Inhibition, 10 μM XL-647.

Data set [2] deals with BT474 human tumor xenograft. Kind of data set: BT474 xenograft, tumor growth. In kind it is in vivo. Conditions: Mus musculus. The procedure: as §1
For the next data set, the system named is Melatonin, Non-selective. Put plainly: NovaScreen assay. In kind it is binding.
Another data set in a line: in vitro. In kind it is in vitro ADME, mouse and human. As to conditions: rat, mouse, human, plasma.
In the next data set the test system is Glutamate, AMPA Site. Put plainly: NovaScreen assay. The data set is classed as binding.
The next data set deals with T3, Leukotriene D4, LTD4 (Homo sapiens, UniProt Q9Y271).
T3 construct: NovaScreen
Put plainly: NovaScreen assay. The data set is classed as binding. As to conditions: read-out: Inhibition, 10 μM XL-647.

The subject of data set [3] is Potassium Channel, Ca2+ Act., VI. Kind of data set: NovaScreen assay. In kind it is binding.
The target of another data set is T4, Histamine, H2 (Homo sapiens, UniProt P25021).
T4 construct: NovaScreen
Kind of data set: NovaScreen assay. In kind it is binding. As to conditions: read-out: Inhibition, 10 μM XL-647.

The format of data set [4] is in vitro ADME. Conditions: human.
The next data set deals with T5, Calcium Channel, Type N (Homo sapiens, UniProt Q00975).
T5 construct: NovaScreen
Kind of data set: NovaScreen assay. Conditions: read-out: Inhibition, 10 μM XL-647. The data set is classed as binding.

The structures appear in SMILES notation. Marks after values point to notes of the source that are not given here.

The source of these data is patent publication US9364479B2, “Use of a receptor-type kinase modulator for treating polycystic kidney disease” (SYMPHONY EVOLUTION, INC., priority 2010, dated 2016).

T3 sequence (Q9Y271 whole entry): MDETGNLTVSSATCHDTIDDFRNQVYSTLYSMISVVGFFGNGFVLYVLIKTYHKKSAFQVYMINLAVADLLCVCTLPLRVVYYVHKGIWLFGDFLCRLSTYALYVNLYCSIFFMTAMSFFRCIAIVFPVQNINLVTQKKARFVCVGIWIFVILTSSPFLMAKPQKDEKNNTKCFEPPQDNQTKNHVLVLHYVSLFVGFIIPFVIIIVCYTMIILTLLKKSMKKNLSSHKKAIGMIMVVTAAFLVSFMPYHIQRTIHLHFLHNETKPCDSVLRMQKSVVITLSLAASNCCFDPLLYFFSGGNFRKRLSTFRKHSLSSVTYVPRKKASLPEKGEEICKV
T2 sequence (P21731 whole entry): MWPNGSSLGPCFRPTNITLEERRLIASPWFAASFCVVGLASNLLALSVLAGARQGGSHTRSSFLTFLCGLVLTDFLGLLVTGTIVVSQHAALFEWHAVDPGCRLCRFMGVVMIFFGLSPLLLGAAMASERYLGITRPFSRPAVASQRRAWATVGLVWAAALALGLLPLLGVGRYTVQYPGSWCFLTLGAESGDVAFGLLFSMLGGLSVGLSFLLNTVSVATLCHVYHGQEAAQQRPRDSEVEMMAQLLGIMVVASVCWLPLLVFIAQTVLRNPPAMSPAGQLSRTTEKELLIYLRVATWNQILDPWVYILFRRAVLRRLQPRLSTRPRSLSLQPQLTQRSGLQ
T4 sequence (P25021 whole entry): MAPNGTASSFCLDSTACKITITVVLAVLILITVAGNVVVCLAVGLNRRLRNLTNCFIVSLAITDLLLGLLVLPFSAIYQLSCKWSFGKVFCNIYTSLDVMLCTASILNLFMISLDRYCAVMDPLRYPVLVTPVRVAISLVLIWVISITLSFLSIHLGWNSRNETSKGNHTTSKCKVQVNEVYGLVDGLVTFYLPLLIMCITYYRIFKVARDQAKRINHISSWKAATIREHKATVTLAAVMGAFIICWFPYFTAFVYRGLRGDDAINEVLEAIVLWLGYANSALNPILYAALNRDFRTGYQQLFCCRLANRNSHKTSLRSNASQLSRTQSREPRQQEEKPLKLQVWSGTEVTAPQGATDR
T5 sequence (Q00975 whole entry): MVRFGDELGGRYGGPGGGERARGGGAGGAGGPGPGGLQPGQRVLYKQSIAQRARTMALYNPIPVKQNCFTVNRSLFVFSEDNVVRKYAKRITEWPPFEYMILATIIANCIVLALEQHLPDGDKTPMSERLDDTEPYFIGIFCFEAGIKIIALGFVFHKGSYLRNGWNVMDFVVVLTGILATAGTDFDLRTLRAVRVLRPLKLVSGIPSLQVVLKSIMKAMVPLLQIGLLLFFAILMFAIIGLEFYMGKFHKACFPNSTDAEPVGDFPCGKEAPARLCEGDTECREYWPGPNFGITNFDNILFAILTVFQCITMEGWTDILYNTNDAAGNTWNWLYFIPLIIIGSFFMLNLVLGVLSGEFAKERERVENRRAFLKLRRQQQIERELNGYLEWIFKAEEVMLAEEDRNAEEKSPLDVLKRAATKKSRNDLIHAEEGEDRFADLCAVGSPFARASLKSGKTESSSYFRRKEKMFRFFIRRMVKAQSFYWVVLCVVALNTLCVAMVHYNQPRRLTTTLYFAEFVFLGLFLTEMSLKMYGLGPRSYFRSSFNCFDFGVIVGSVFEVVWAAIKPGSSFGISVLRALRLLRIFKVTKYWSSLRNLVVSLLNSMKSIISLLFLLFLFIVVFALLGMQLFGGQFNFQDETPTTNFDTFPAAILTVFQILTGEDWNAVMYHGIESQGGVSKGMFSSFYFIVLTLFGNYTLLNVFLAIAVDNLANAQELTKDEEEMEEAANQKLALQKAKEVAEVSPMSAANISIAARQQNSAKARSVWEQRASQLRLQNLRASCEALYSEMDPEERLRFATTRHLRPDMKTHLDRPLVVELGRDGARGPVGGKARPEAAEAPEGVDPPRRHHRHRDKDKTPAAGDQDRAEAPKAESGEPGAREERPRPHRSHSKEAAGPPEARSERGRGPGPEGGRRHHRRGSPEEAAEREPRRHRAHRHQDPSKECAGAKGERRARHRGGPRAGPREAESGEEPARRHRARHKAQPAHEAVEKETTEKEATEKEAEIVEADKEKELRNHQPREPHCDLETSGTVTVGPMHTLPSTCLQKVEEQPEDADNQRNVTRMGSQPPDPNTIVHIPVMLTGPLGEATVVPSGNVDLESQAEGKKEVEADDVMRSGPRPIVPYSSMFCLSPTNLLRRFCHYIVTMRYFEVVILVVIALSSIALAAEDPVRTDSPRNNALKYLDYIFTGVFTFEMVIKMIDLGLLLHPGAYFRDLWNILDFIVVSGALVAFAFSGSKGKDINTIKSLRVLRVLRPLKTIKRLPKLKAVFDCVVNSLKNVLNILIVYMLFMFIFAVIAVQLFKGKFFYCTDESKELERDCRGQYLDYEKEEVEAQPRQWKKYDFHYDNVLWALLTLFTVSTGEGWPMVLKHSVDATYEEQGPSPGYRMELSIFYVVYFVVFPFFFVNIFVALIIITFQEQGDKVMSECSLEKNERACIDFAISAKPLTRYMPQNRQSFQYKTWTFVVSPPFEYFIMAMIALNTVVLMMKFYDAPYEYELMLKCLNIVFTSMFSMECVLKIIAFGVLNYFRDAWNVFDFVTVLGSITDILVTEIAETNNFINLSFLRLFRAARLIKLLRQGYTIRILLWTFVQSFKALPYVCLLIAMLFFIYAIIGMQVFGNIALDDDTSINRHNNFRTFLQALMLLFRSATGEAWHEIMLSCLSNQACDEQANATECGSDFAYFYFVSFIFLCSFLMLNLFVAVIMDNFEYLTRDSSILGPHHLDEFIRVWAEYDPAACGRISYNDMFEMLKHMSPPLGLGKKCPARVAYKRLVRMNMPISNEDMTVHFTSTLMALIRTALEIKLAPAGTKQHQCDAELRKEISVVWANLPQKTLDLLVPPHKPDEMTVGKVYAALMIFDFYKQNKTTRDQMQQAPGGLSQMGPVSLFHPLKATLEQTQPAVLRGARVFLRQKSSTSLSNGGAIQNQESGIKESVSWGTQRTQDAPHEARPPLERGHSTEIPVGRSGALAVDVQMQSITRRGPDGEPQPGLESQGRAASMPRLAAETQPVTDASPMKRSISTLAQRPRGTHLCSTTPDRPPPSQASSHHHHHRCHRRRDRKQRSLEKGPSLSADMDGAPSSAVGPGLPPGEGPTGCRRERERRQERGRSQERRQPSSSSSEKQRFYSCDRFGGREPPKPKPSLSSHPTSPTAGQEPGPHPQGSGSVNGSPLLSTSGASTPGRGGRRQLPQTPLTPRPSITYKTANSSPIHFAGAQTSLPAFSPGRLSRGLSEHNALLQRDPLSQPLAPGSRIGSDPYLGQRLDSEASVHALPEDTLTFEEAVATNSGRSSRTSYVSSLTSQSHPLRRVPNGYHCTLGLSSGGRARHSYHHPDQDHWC

As a reminder, the ED50 is the dose at which the effect has come halfway, by size or by number of responders. The inhibition is the relative decrease from the control value, in per cent. As usually defined, the fraction unbound is free concentration divided by total concentration. A higher fraction unbound goes with much free substance. As for `COc1cc2c(Nc3ccc(Cl)c(Cl)c3F)ncnc2cc1OC[C@@H]1C[C@@H]2CN(C)C[C@@H]2C1` [XL-647, N-(3,4-dichloro-2-fluorophenyl)-7-({[(3aR,5r,6aS)-2-methyloctahydrocyclopenta[c]pyrrol-5-yl]methyl}oxy)-6-(methyloxy)quinazolin-4-amine], the results for the “Phospho-EGFR Tyr1068 % Cells” value on Phospho-EGFR Tyr1068 (10 mg/kg), on Phospho-EGFR Tyr1068 (30 mg/kg) and at Phospho-EGFR Tyr1068 (100 mg/kg) were 14 ± 1.9%, 12 ± 1.3% and 10 ± 1.8%, respectively. The “Phospho-EGFR Tyr1068 % Reduction” value is listed as 49.0^a % on Phospho-EGFR Tyr1068 (10 mg/kg), 56.1^a % on Phospho-EGFR Tyr1068 (30 mg/kg) and 63.7^a % at Phospho-EGFR Tyr1068 (100 mg/kg). For the same compound, the 50% effective dose (ED50) in data set [1] (MDA-MB-231, qd × 14) was 21.9 mg/kg; in data set [1] (MDA-MB-231, qd × 28), 22.9 mg/kg; in data set [2] (BT-474, qd × 14), 9.8 mg/kg; in data set [2] (BT-474, qd × 28) it was 21.9 mg/kg. In addition, the inhibition at 10 µM at Thromboxane A2 (Human) was 1.51%; at Leukotriene D4, LTD4 it was -11.9%; at Histamine, H2, 45.7%; on Calcium Channel, Type N, 16.8%. For the same compound, the “Inhibition, 10 μM XL-647” value was found to be 0.18% in the data set on Melatonin, Non-selective; 10.79% in the data set with Glutamate, AMPA Site; 17.02% in [3]. Besides, the fraction unbound in “in vitro” fell in the range of 0.04 to 0.09. The protein bound in data set [4] is 93-97.5%.
